Here are results for two substances from patent US4606856A, “[Des-1-amino, 8-glycine]calcitonin” (priority 1985, dated 1986).

The test system of assay [1] is serum calcium concentration. Particulars: standard salmon calcitonin used in the assay; cited from earlier work.
The subject of assay [2] is serum calcium concentration. Briefly: Biological assay of calcitonin analogs in vivo: reduction of serum calcium concentration, 2×2 parallel line assay. Particulars: rats, subcutaneous injection, serum calcium 1 hour later, compared with synthetic salmon calcitonin standard.
Description: Rats were divided into four groups of seven animals, and each group was assigned at random to a dose of standard or test solution. Low and high doses were chosen from the linear portion of the dose-response curve. For the salmon calcitonin standard, the values were 0.7 and 2.1 ng. peptide/100 g. body weight (BW). This dose approximates 3 and 9 MU/100 g. BW. Peptides were given by subcutaneous injection (0.2 ml/100 g. BW) and blood was withdrawn 1 hour later for serum calcium determination. Sera are processed and analyzed within two hours of collection. Results were analyzed within two hours of collection. Results were analyzed by a 2×2 parallel line assay [Gaddum, J. H., J. Pharm.

“Salmon calcitonin [standard salmon calcitonin]”: the “biological potency of the standard, independently determined” value in assay [1] is on record as “greater than 4,000 IU/mg”.

“[Des-1-Amino, 8-Glycine]salmon calcitonin [[Des-1-Amino, Gly^8]SCT]”: the biological potency in assay [2] was determined as 4750 IU/mg.
